Measured values as given in ChEMBL document CHEMBL5523738, “Lipid Trolling to Optimize A3 Adenosine Receptor-Positive Allosteric Modulators (PAMs)” (J Med Chem, 2024).
Activity calls are given as the source filed them. The calls are words filed in the database; no cut-off is given here.

Assays:
[1] = molecular target: T1, Adenosine receptor A3 (Homo sapiens) (UniProt P0DMS8); experiment: Antagonist activity at human A3 adenosine receptor transfected in HEK293 cell membranes assessed as rightward shift in 5-(2-chloro-6-((3-iodobenzyl)amino)-9H-purin-9-yl)-3,4-dihydroxy-N-methyltetrahydrofuran-2-carboxamide activation curve at 10 uM pretreated for 1 hr followed by agonist addition and measured after 2 hrs by liquid scintillation counting method; assay type: functional; settings: Membrane, time 3.0 hrs
T1 sequence (whole entry): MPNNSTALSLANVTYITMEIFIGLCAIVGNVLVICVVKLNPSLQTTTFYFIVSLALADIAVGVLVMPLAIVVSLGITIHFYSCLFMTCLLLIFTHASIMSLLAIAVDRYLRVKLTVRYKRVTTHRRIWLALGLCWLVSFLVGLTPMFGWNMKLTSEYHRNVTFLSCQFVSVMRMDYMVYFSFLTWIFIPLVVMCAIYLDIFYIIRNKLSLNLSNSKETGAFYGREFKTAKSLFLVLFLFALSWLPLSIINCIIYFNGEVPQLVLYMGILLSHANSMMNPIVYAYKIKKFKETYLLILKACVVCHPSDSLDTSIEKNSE

[2] = molecular target: T1, Adenosine receptor A3 (Homo sapiens); experiment: Positive allosteric modulation of human A3 adenosine receptor transfected in HEK293 cell membranes assessed as potentiation of 5-(2-chloro-6-((3-iodobenzyl)amino)-9H-purin-9-yl)-3,4-dihydroxy-N-methyltetrahydrofuran-2-carboxamide induced [35S]GTP-gammaS binding by measuring fold increase in agonist …; settings: Membrane, filed as positive allosteric modulator, dose 1.0 µM, time 3.0 hrs
[3] = molecular target: T2, Adenosine receptor A3 (Mus musculus) (UniProt Q61618); experiment: Positive allosteric modulation of full length mouse A3 adenosine receptor transfected in HEK293 cell membranes assessed as slow down of [125I]I-AB-MECA dissociation rate at 10 uM preincubated with radioligand for 3 hrs followed by NECA and compound addition and measured upto 180 mins by gamma counter method; settings: Membrane, filed as positive allosteric modulator
T2 sequence (whole entry): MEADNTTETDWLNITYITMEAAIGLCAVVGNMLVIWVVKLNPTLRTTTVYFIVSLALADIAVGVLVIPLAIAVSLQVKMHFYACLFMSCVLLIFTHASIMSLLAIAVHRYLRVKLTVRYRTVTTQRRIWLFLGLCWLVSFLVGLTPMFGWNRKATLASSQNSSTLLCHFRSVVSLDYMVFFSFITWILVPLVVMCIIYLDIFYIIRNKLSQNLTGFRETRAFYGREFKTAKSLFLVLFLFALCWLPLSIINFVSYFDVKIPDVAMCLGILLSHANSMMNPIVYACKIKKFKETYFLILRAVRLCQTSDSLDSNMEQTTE

[4] = molecular target: T2, Adenosine receptor A3 (Mus musculus); experiment: Orthosteric antagonist activity at full length mouse A3 adenosine receptor transfected in HEK293 cell membranes assessed as inhibition of [125I]I-AB-MECA binding at equilibrium at 10 uM by gamma counter method; settings: Membrane, filed as antagonist
[5] = molecular target: T1, Adenosine receptor A3 (Homo sapiens); experiment: Orthosteric antagonist activity at human A3 adenosine receptor transfected in HEK293 cell membranes assessed as inhibition of [125I]I-AB-MECA binding at equilibrium at 10 uM measured for 18 hrs by gamma counter method; settings: Membrane, filed as antagonist
[6] = molecular target: T1, Adenosine receptor A3 (Homo sapiens); experiment: Positive allosteric modulation of human A3 adenosine receptor transfected in HEK293 cell membranes assessed as slow down of [125I]I-AB-MECA dissociation rate at 10 uM preincubated with radioligand for 3 hrs followed by NECA and compound addition and measured after 60 mins by gamma counter method; settings: Membrane, filed as positive allosteric modulator

fold change (FC) [2] | Activity [3] | SMILES | also measured
– | – | Clc1ccc(Nc2nc3ccccc3c3sc(C4CCCCC4)nc23)cc1Cl | Activity [1]: inactive
4 | – | CCCC(CCC)c1nc2c(Nc3ccc(C#CCCCCCCCCCN4CCCCC4)cc3)nc3ccccc3c2[nH]1 | –
– | Active | CCCC(CCC)c1nc2c(Nc3ccc(C#CCCCN)cc3)nc3ccccc3c2[nH]1 | –
7.4 | Active | CCCC(CCC)c1nc2c(Nc3ccc(C#CCCCCCCCN)cc3)nc3ccccc3c2[nH]1 | Activity [4]: Active
– | – | CCCC(CCC)c1nc2c(Oc3ccc(Cl)c(Cl)c3)nc3ccccc3c2[nH]1 | Activity [5]: Active; Activity [6]: Active
4 | – | CCCC(CCC)c1nc2c(Nc3ccc(C#CCCCCCCCCN(C)C)cc3)nc3ccccc3c2[nH]1 | –
– | – | Clc1ccc(Sc2nc3ccccc3c3[nH]c(C4CCCCC4)nc23)cc1Cl | Activity [5]: Active; Activity [6]: Active
4 | – | CCCC(CCC)c1nc2c(Nc3ccc(C#CCCCCCCCCCN4CCCC4)cc3)nc3ccccc3c2[nH]1 | –
2.5 | Active | CCCC(CCC)c1nc2c([nH]1)c(Nc1ccc(C#CCCCCCCCCCCN)cc1)nc1ccccc12 | Activity [4]: Active
– | Active | CCCC(CCC)c1nc2c(Nc3ccc(C#CCCCCN)cc3)nc3ccccc3c2[nH]1 | Activity [4]: Active
– | – | CCCC(CCC)c1nc2c(Nc3ccc(/C=C/C(=O)NCCCCCCCCN)cc3)nc3ccccc3c2[nH]1 | Activity [5]: Active; Activity [6]: Active
– | Active | CCCC(CCC)c1nc2c(Nc3ccc(I)cc3)nc3ccccc3c2[nH]1 | –
– | Active | CCCC(CCC)c1nc2c(Nc3cccc(C#CCCCCCCCCN)c3)nc3ccccc3c2[nH]1 | –
12 | – | CCCC(CCC)c1nc2c(Nc3ccc(C#CCCCCCCCCNCCCCN)cc3)nc3ccccc3c2[nH]1 | –
– | – | OCCn1c(C2CCCCC2)nc2c(Nc3ccc(Cl)c(Cl)c3)nc3ccccc3c21 | Activity [5]: Active
